Test results as given in patent US20230158157A1, “POTENT AND SELECTIVE DEGRADERS OF ALK” (DANA-FARBER CANCER INSTITUTE, INC., priority 2020, published 2023).
Read-outs that look alike come from different tables or passages of the source.

Assays:
EML4-ALK = molecular target: T1, EML4-ALK (Homo sapiens, UniProt Q9UM73); assay: EML4-ALK HiBit degradation assay in CRISPR-tagged H3122 cells (Nano-Glo HiBit Lytic Detection); assay type: cell-based
T1 construct: endogenous in cells; host or cells: H3122 (NSCLC), single-cell clone after CRISPR knock-in of HiBit; the other entry of the earlier key: EML4 (Q9HC35, Echinoderm microtubule-associated protein-like 4)
Procedure: (§1) NSCLC cell line H3122 was subjected to CRISPR to express EML4-ALK with HiBit-tag on its c-terminal. Single-cell clone was selected and expanded for the following assays that monitor endogenous EML4-ALK level in high throughput manner. Cells were seeded in 384-well white Tissue-culture plates at 3000 cells/well for 8 hours. […] HiBit signal was assessed using Nano-Glo® HiBit Lytic Detection System (Promega™). Degrader-treated was normalized by DMSO-treated controls and DC50 and Dmax were generated by GraphPad Prism® 8.0.
as §1, with “its c-terminus. A single-cell” for “its c-terminal. Single-cell”, “Degrader-treated cells were” for “Degrader-treated was”
as §1, with “its C-terminus. A single-cell” for “its c-terminal. Single-cell”, “Degrader-treated cells were” for “Degrader-treated was”

H3122 cells = assay: CTG; assay type: cell-based
[1] = NCI-H3122, Table 1, first Dmax column, H3122 EML4-ALK-HiBit, 16 hours, read-out: Degradation Dmax
[2] = NCI-H3122, Table 1, average Dmax, read-out: Degradation Avg. Dmax
[3] = Table 1, first DC50 column, H3122 EML4-ALK-HiBit, 16 hours, read-out: Degradation DC50
[4] = Table 1, average DC50, read-out: Degradation Avg. DC50
[5] = Homo sapiens, NCI-H3122, Table 1, read-out: CTG IC50
[6] = NCI-H3122, Table 1, second Dmax column, H3122 EML4-ALK-HiBit, 16 hours, read-out: Degradation Dmax
[7] = Table 1, second DC50 column, H3122 EML4-ALK-HiBit, 16 hours, read-out: Degradation DC50
[8] = Homo sapiens, NCI-H3122, Table 2, read-out: CTG IC50
[9] = NCI-H3122, Table 2, first Dmax column, H3122 EML4-ALK-HiBit, 16 hours, read-out: Degradation Dmax
[10] = Table 2, first DC50 column, H3122 EML4-ALK-HiBit, 16 hours, read-out: Degradation DC50

T1 sequence (Q9UM73 with tags, fused parts or gaps): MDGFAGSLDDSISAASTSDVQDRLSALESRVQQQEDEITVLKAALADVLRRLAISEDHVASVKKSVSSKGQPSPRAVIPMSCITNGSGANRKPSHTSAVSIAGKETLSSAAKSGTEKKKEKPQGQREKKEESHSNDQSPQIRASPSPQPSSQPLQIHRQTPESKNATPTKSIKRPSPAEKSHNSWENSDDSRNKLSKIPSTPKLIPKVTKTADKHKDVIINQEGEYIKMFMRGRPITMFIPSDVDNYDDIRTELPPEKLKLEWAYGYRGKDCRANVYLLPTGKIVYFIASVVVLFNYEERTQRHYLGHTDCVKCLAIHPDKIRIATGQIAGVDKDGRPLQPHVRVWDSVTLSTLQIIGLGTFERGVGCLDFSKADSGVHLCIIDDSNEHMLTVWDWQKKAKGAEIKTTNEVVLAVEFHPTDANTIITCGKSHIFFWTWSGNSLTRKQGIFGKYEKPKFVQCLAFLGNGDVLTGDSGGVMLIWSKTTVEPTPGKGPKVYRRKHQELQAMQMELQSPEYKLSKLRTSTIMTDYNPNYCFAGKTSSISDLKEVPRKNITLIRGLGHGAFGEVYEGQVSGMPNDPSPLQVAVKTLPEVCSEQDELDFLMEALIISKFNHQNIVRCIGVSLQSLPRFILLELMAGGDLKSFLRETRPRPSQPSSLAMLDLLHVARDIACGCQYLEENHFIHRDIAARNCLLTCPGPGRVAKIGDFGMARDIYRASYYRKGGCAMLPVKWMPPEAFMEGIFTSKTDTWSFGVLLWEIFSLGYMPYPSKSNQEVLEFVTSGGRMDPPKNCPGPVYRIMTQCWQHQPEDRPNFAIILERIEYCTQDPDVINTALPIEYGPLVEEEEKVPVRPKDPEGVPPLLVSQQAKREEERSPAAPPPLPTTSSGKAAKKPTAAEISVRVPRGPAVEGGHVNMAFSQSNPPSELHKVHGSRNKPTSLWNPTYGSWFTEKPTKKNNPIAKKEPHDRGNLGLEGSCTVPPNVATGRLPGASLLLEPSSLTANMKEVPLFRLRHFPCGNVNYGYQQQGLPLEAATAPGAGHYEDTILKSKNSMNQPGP

Compound	Dmax (EML4-ALK; [1]) [%]	Dmax (EML4-ALK; [2]) [%]	DC50 (EML4-ALK; [3]) [nM]	DC50 (EML4-ALK; [4]) [nM]	IC50 (H3122 cells; [5]) [nM]	further results
COc1cc(CCN(C)C(=O)CCCC#Cc2cccc3c2C(=O)N(C2CCC(=O)NC2=O)C3=O)c(C)cc1Nc1ncc(Cl)c(Nc2ccccc2S(=O)(=O)C(C)C)n1 (stereo not shown) [compound 9, N-(4-((5-chloro-4-((2-(isopropylsulfonyl)phenyl)amino)pyrimidin-2-yl)amino)-5-methoxy-2-methylphenethyl)-6-(2-(2,6-dioxopiperidin-3-yl)-1,3-dioxoisoindolin-4-yl)-N-methylhex-5-ynamide]	54.1	54.1	265	265	122	–
COc1cc(CCN(C)C(=O)CCOCCC(=O)N[C@H](C(=O)N2C[C@H](O)C[C@H]2C(=O)N[C@@H](C)c2ccc(-c3scnc3C)cc2)C(C)(C)C)c(C)cc1Nc1ncc(Cl)c(Nc2ccccc2S(=O)(=O)C(C)C)n1 [compound 52, (2S,4R)-1-((S)-2-(3-(3-((4-((5-chloro-4-((2-(isopropylsulfonyl)phenyl)amino)pyrimidin-2-yl)amino)-5-methoxy-2-methylphenethyl)(methyl)amino)-3-oxopropoxy)propanamido)-3,3-dimethylbutanoyl)-4-hydroxy-N-((S)-1-(4-(4-methylthiazol-5-yl)phenyl)ethyl)pyrrolidine-2-carboxamide]	54.8	52.1	214	160	67.7	Dmax (EML4-ALK; [6]): 49.4%; DC50 (EML4-ALK; [7]): 107 nM
COc1cc(CCN(C)CCCCCNc2cccc3c2C(=O)N(C2CCC(=O)NC2=O)C3=O)c(C)cc1Nc1ncc(Cl)c(Nc2ccccc2S(=O)(=O)C(C)C)n1 (stereo not shown) [Compound 50]	–	–	57	41	–	DC50 (EML4-ALK; [7]): 24 nM; IC50 (H3122 cells; Table 1, read-out: CTG IC50): 20.6 nM
COc1cc(CCNCCCCCCCC(=O)N[C@H](C(=O)N2C[C@H](O)C[C@H]2C(=O)N[C@@H](C)c2ccc(-c3scnc3C)cc2)C(C)(C)C)c(C)cc1Nc1ncc(Cl)c(Nc2ccccc2S(=O)(=O)C(C)C)n1 [Compound 45]	51	51	390	390	106	–
COc1cc(CCN(C)C(=O)CCCCCCCC(=O)N[C@H](C(=O)N2C[C@H](O)C[C@H]2C(=O)N[C@@H](C)c2ccc(-c3scnc3C)cc2)C(C)(C)C)c(C)cc1Nc1ncc(Cl)c(Nc2ccccc2S(=O)(=O)C(C)C)n1 [compound 41, N^1-(4-((5-chloro-4-((2-(isopropylsulfonyl)phenyl)amino)pyrimidin-2-yl)amino)-5-methoxy-2-methylphenethyl)-N^9-((S)-1-((2S,4R)-4-hydroxy-2-(((S)-1-(4-(4-methylthiazol-5-yl)phenyl)ethyl)carbamoyl)pyrrolidin-1-yl)-3,3-dimethyl-1-oxobutan-2-yl)-N^1-methylnonanediamide]	56.2	56.2	626	626	176	–
CC[C@@H](NC(=O)C1CC(NC(=O)CCCCCCC(=O)N(C)CCc2cc(OC)c(Nc3ncc(Cl)c(Nc4ccccc4S(=O)(=O)C(C)C)n3)cc2C)CN1C(=O)[C@@H](NC(=O)[C@H](C)NC)C(C)(C)C)c1ccccc1 (stereo partly shown) [Compound 55]	74.6	88.2	624	492	296	Dmax (EML4-ALK; [6]): 102%; DC50 (EML4-ALK; [7]): 360 nM
COc1cc(CCN(C)C(=O)CCCNc2cccc3c2C(=O)N(C2CCC(=O)NC2=O)C3=O)c(C)cc1Nc1ncc(Cl)c(Nc2ccccc2S(=O)(=O)C(C)C)n1 (stereo not shown) [compound 1]	25.8	23.8	32	32	44.8	–
COc1cc(CCNCCOCCOCCOCCC(=O)N[C@H](C(=O)N2C[C@H](O)C[C@H]2C(=O)N[C@@H](C)c2ccc(-c3scnc3C)cc2)C(C)(C)C)c(C)cc1Nc1ncc(Cl)c(Nc2ccccc2S(=O)(=O)C(C)C)n1 [Compound 47]	81.9	88.7	1100	723	285	Dmax (EML4-ALK; [6]): 95.6%; DC50 (EML4-ALK; [7]): 347 nM
COc1cc(CCN(C)C(=O)CCOCCOCCNC(=O)COc2cccc3c2C(=O)N(C2CCC(=O)NC2=O)C3=O)c(C)cc1Nc1ncc(Cl)c(Nc2ccccc2P(C)(C)=O)n1 (stereo not shown) [Compound 60]	–	–	–	–	–	IC50 (H3122 cells; Table 2, read-out: CTG IC50): > 10000 nM
COc1cc(CCN(C)C(=O)CCCCCCCC(=O)N[C@H](C(=O)N2C[C@H](O)C[C@H]2C(=O)N[C@@H](C)c2ccc(-c3scnc3C)cc2)C(C)(C)C)c(C)cc1Nc1ncc(Cl)c(Nc2ccccc2P(C)(C)=O)n1 [compound 69, N^1-(4-((5-chloro-4-((2-(dimethylphosphoryl)phenyl)amino)pyrimidin-2-yl)amino)-5-methoxy-2-methylphenethyl)-N^9-((S)-1-((2S,4R)-4-hydroxy-2-(((S)-1-(4-(4-methylthiazol-5-yl)phenyl)ethyl)carbamoyl)pyrrolidin-1-yl)-3,3-dimethyl-1-oxobutan-2-yl)-N^1-methylnonanediamide]	–	–	–	–	–	IC50 (H3122 cells; [8]): 477 nM
COc1cc(CCN(C)C(=O)CCCCCCC(=O)N[C@H](C(=O)N2C[C@H](O)CC2C(=O)N[C@@H](C)c2ccc(-c3scnc3C)cc2)C(C)(C)C)c(C)cc1Nc1ncc(Cl)c(Nc2ccccc2P(C)(C)=O)n1 (stereo partly drawn) [compound 70, N^1-(4-((5-chloro-4-((2-(dimethylphosphoryl)phenyl)amino)pyrimidin-2-yl)amino)-5-methoxy-2-methylphenethyl)-N^8-((S)-1-((2S,4R)-4-hydroxy-2-(((S)-1-(4-(4-methylthiazol-5-yl)phenyl)ethyl)carbamoyl)pyrrolidin-1-yl)-3,3-dimethyl-1-oxobutan-2-yl)-N′-methyloctanediamide]	–	–	–	–	–	IC50 (H3122 cells; [8]): 371 nM
COc1cc(CCN(C)C(=O)CCCCCNC(=O)COc2cccc3c2C(=O)N(C2CCC(=O)NC2=O)C3=O)c(C)cc1Nc1ncc(Cl)c(Nc2ccccc2P(C)(C)=O)n1 (stereo not shown) [Compound 58]	–	–	–	–	–	IC50 (H3122 cells; [8]): > 10000 nM
COc1cc(CCN(C)C(=O)CCCNc2cccc3c2C(=O)N(C2CCC(=O)NC2=O)C3=O)c(C)cc1Nc1ncc(Cl)c(Nc2ccccc2P(C)(C)=O)n1 (stereo not shown) [Compound 64]	–	–	–	–	–	IC50 (H3122 cells; [8]): 301 nM
CC[C@@H](NC(=O)[C@@H]1C[C@H](NC(=O)CCCCCCC(=O)N(C)CCc2cc(OC)c(Nc3ncc(Cl)c(Nc4ccccc4P(C)(C)=O)n3)cc2C)CN1C(=O)[C@@H](NC(=O)[C@H](C)NC)C(C)(C)C)c1ccccc1 [Compound 74]	–	–	–	–	–	Dmax (EML4-ALK; [9]): 47.1%; Dmax (EML4-ALK; NCI-H3122, Table 2, second Dmax column, H3122 EML4-ALK-HiBit, 16 hours, read-out: Degradation Dmax): 47.2%; Dmax (EML4-ALK; NCI-H3122, Table 2, average Dmax, read-out: Degradation Avg. Dmax): 47.1%; DC50 (EML4-ALK; [10]): 506 nM; DC50 (EML4-ALK; Table 2, second DC50 column, H3122 EML4-ALK-HiBit, 16 hours, read-out: Degradation DC50): 480 nM; DC50 (EML4-ALK; Table 2, average DC50, read-out: Degradation Avg. DC50): 490 nM
CC[C@@H](NC(=O)[C@@H]1C[C@H](NC(=O)CCCCCCCC(=O)N(C)CCc2cc(OC)c(Nc3ncc(Cl)c(Nc4ccccc4P(C)(C)=O)n3)cc2C)CN1C(=O)[C@@H](NC(=O)[C@H](C)NC)C(C)(C)C)c1ccccc1 [compound 75, N^1-(4-((5-chloro-4-((2-(dimethylphosphoryl)phenyl)amino)pyrimidin-2-yl)amino)-5-methoxy-2-methylphenethyl)-N^9-((3S,5S)-1-((S)-3,3-dimethyl-2-((S)-2-(methylamino)propanamido)butanoyl)-5-(((R)-1-phenylpropyl)carbamoyl)pyrrolidin-3-yl)-N^1-methylnonanediamide]	–	–	–	–	–	Dmax (EML4-ALK; [9]): 42.1%; DC50 (EML4-ALK; [10]): 381 nM
COc1cc(CCN(C)C(=O)CCOCCOCCNc2cccc3c2C(=O)N(C2CCC(=O)NC2=O)C3=O)c(C)cc1Nc1ncc(Cl)c(Nc2ccccc2P(C)(C)=O)n1 (stereo not shown) [Compound 67]	–	–	–	–	–	IC50 (H3122 cells; [8]): 2290 nM
COc1cc(CCNCCCCCC#Cc2cccc3c2C(=O)N(C2CCC(=O)NC2=O)C3=O)c(C)cc1Nc1ncc(Cl)c(Nc2ccccc2S(=O)(=O)C(C)C)n1 (stereo not shown) [compound 49, 4-(7-((4-((5-chloro-4-((2-(isopropylsulfonyl)phenyl)amino)pyrimidin-2-yl)amino)-5-methoxy-2-methylphenethyl)amino)hept-1-yn-1-yl)-2-(2,6-dioxopiperidin-3-yl)isoindoline-1,3-dione]	–	–	–	–	66.9	IC50 (H3122 cells; Homo sapiens, NCI-H3122, read-out: CTG IC50): 96.3 nM
